According to US20130281413A1, “Salicylate Conjugates Useful For Treating Metabolic Disorders” (Genmedica Therapeutics SL, priority 2008, published 2013):

Assays:
β-cells [1] = assay: In vivo beta cell protection model (alloxan), FIG. 6; design: species or system cd-1 mice; conditions: for effect of alloxan on β-cells: lysine salts, single i.p. administration 1 hour before alloxan 200 mg/kg
Protocol: Beta-cell destruction was induced in cd-1 mice after 3 hours of fasting by a single intraperitoneal injection of a freshly prepared solution of alloxan 200 mg/kg (Sigma-Aldrich, San Luis, Mo.) that was dissolved in NaCl 0.9%. Single intraperitoneal drug administration was 1 hour before the alloxan administration. Animals received the different drugs dissolved in PBS pH 7.4, and the animals that not received any drug were injected with the vehicle, in this case PBS pH 7.4. At the end of the treatment, at day 4, animals were killed and the plasma collected and kept at −20° C. until used.
The circulating glucose concentration was determined by a rapid glucose analyzer (Accu-Chek Aviva; Roche). Plasma triglycerides and non esterified fatty acids were determined with standard colorimetric methods (Biosystems, Barcelona, Spain, and Wako Chemicals, Neuss, Germany, respectively). Plasma insulin concentration was determined by enzyme-linked immunosorbent assay method (CrystalChem, Downers Grove, Ill.).

[2] = tested on: Zucker fa/fa rats or ob/ob mice; conditions: 120 mg/kg/day subcutaneous infusion, 3-4 weeks; cited from earlier work
β-cells [3] = assay: Preserving β-cell function of mice challenged by one shot of streptozotocin; type: in vivo; conditions: oral or intraperitoneal, prior and during 5 days following streptozotocin 45 mg/kg i.p.
Protocol: Further, compounds of the present invention, such as Salnacedin, are tested for their efficiency at preserving β-cell function of mice challenged by one shot of streptozotocin (45 mg/kg i.p.).

β-cells [4] = assay: Protection of β-cell failure and prevention of hyperglycemia in streptozotocin treated rats; type: in vivo
[5] = tested on: Zucker diabetic fatty (ZDF) rats; assay: Restoration of insulin sensitivity in Zucker diabetic fatty (ZDF) rats; type: in vivo; conditions: 250 mg/kg oral daily
Protocol: To assess whether conjugates comprising an antioxidant agent and an inflammatory agent would prevent glucose toxicity and progression of diabetes mellitus associated with β-cell failure overtime, we assessed whether compounds of Formula (I), including salnacedin, would alter the development of the disease in this Type 2 diabetic animal model.
Zucker diabetic rats from 6 to 12 weeks of age are treated daily with an oral dose of 250 mg/kg of a compound of the present invention, such as salnacedin.

[6] = tested on: animal models of diabetes; assay: Summary of effects in different animal models of diabetes; type: in vivo
[7] = tested on: streptozotocin-induced diabetic mice; assay: Type 1 diabetic model in mice (streptozotocin 120 mg/kg i.p.); type: in vivo; conditions: 4 weeks
Protocol: Mice induced by streptozotocin injection (120 mg/kg i.p.) are treated for 4 weeks with 250 mg/kg/day (oral or i.p.) of a compound of the present invention, such as […]. At the end of the 4 week treatment, fasting glucose, fructosamine, triglycerides and cholesterol are measured.

ob/ob and db/db mice = assay: Restoration of insulin sensibility in ob/ob and db/db mice; type: in vivo
Protocol: Eight week old ob/ob and db/db mice are treated for 3 to 4 weeks with a daily dose of 250 mg/kg of a compound of the present invention, such as […], by oral gavage or with drug mix with food or subcutaneously. […] Additionally, the levels of insulin are measured 15 min following the glucose loading to determine the capacity of the β-cells to secrete insulin.

IKKβ = conditions: diabetic animals; cited from earlier work
human diabetic patients = conditions: 4.5 g/day; cited from earlier work
[8] = 250 mg/kg/day oral or i.p., vs control group

For CC(=O)N[C@@H](CSC(=O)c1cc(-c2ccc(F)cc2F)ccc1O)C(=O)O [GMC-1.3b, diflunisal-(L) N-acetyl cysteine], the “effect of alloxan on β-cells” value (β-cells [1]) was “reduce the effect of alloxan on β-cells”.

In the case of O=C(O)c1ccccc1O [Salicylate], the fasting blood glucose [2] is given as “reduction in fasting blood glucose” and the glucose tolerance [2] is given as “glucose tolerance improvement”.

With CC(=O)N[C@@H](CSC(=O)c1ccccc1O)C(=O)O [Example 1, (R)-2-acetamido-3-(2-hydroxybenzoylthio)propanoic acid] the “β-cell protection from oxidative stress and development of hyperglycemia over time” value (β-cells [3]) was “protects β-cells from oxidative stress and reduces the development of hyperglycemia over time compared to control”, the blood glucose level (β-cells [4]; pretreated rats vs control group, associated with preserved capacity of β-cell to secrete insulin) was “lower than the control group” and the “β-cell preservation and development of hyperglycemia” value (β-cells [4]; rats, ~250 mg/kg orally and/or intraperitoneally prior to streptozotocin 45 mg/kg i.p., followed by 4 additional treatment days) was “preserve β-cells, reducing the development of hyperglycemia”. For the same compound, the “levels of 8-hydroxy-deoxyguanosine (8 OhdG) and malondialdehyde+4-hydroxy-2-nonenal (4HNE)” value (β-cells [4]; streptozotocin model, markers of oxidative stress and lipid peroxidation in the blood) was “reduce”, the Hb1Ac ([5]; 6 weeks, vs control group) was “reduced in comparison to the control group” and the cholesterol ([5]; 6 weeks, vs control group) was “reduced in comparison to the control group”. For the same compound, the fasting glucose ([5]; 6 weeks, vs control group) was “reduced in comparison to the control group”, the fructosamine ([5]; 6 weeks, vs control group) was “reduced in comparison to the control group” and the triglycerides ([5]; 6 weeks, vs control group) was “reduced in comparison to the control group”. The glucose tolerance test ([5]; from 6 to 12 weeks of age) was “improves the glucose tolerance test”, the “insulin secretion from β-cells” value ([5]; from 6 to 12 weeks of age) was “preserves insulin secretion from β-cells” and the worsening of hyperglycemia ([5]; from 6 to 12 weeks of age) was “partially prevents the worsening of hyperglycemia”. For the same compound, the insulin levels (β-cells [1]; alloxan-treated animals, indicates pancreatic beta cell protection) was “preservation of insulin levels”, the “hypolipidemic, anti-diabetic and antioxidant effects” value [6] was “strong hypolipidemic and anti-diabetic effects as well as antioxidant properties” and the cholesterol [7, 8] was “reduced in comparison to control group”. The fasting glucose [7, 8] was “reduced in comparison to control group”, the fructosamine [7, 8] was “reduced in comparison to control group” and the triglycerides [7, 8] was “reduced in comparison to control group”. For the same compound, the “reduction in plasmatic parameters compared with a salicylate or an antioxidant alone” value ([7]; 250 mg/kg/day, vs salicylic acid alone or N-acetylcysteine alone) was “more pronounced”, the “fasting blood glucose values” (ob/ob and db/db mice; 250 mg/kg daily, 3 to 4 weeks, oral gavage, in food or subcutaneously, vs control or salicylate/antioxidant alone) was “reduced compared to the control group” and the insulin sensitivity (ob/ob and db/db mice; evidenced by a sustained and pronounced glucose lowering effect) was “improve insulin sensitivity”. For the same compound, the “capacity of the β-cells to secrete insulin” value (ob/ob and db/db mice; insulin measured 15 min following the glucose loading, vs control) was “greater”, the “oxidative stress and lipid peroxidation (8 OhdG, malondialdehyde, 4HNE)” value (ob/ob and db/db mice; level of associated biomarkers) was “a reduction in oxidative stress and lipid peroxidation” and the “levels of glutathione (GSH)” value (ob/ob and db/db mice; liver and kidney) was “restored”. The “inflammatory cytokines TNFα and IL-6” value (ob/ob and db/db mice; mouse, in vivo) was “reduced” and the “glucose tolerance test (OGTT or IPTT): elevation of glucose levels” value (ob/ob and db/db mice; vs non treated animal) was “a reduction in the elevation of glucose levels during the test”.

With CC(=O)NC(CSC(=O)c1ccccc1O)C(=O)O (stereo not shown) [GMC-1.3a, salicylic acid-(L) N-acetyl cysteine] the “effect of alloxan on β-cells” value (β-cells [1]) was “reduce the effect of alloxan on β-cells”.

For O=C(Oc1ccccc1C(=O)O)c1ccccc1O [salsalate], the IKKβ activity (IKKβ) is listed as “decrease in IKKβ activity”, the insulin sensitivity (IKKβ) is listed as “improvement in insulin sensitivity” and the “effects in human diabetic patients” value (human diabetic patients) is listed as “Beneficial effects”. For the same compound, the “side effects, such as tinnitus, enhanced by” value (human diabetic patients) was 66%.
